What was measured:
[1] = H&E histopathology of organs; assay type: in vivo, BALB/c mice; details: 10 mg/kg DOX equivalent, single I.V., 48 h
Experimental: (§1) One week after inoculated with 4T1-luc cells, mice were injected with various agents intravenously. Forty-eight hours later, mice were euthanized and organs (heart, kidney, liver, lung, and spleen) and tumors were harvested and pre-served in 10% formalin for 48 h. Formalin-fixed tissue samples were first transferred from PBS to 70% ethanol and maintained for 2 hours, and then were transferred into 95% ethanol/5% methanol and maintained for an additional 2 hours. The samples were transferred in absolute ethanol and maintained for 1 hour, and then transferred again into 3 consecutive absolute xylene solutions and maintained in each for 1 hour. The samples were dehydrated and then placed in 2 consecutive melted paraffin baths and maintained in each for 2 hours. The tissue samples were then embedded in paraffin blocks and sectioned at 10 um thickness and loaded onto microscope slides. The loaded slides were heated to remove excess paraffin and adhere the samples to the slides. The samples were then deparaffinized by a series of xylene, ethanol and PBS baths.
The deparaffinized samples were stained with haemotoxylin and eosin, and mounted with Prolong Gold mounting medium. Microscopic images of tissues were acquired using a Nikon ECLIPSE TE 2000-S microscope.

[2] = system: 4T1-luc tumors and organs; assay: DOX uptake in organs and tumors by confocal imaging; assay type: in vivo, BALB/c mice; details: 10 mg/kg DOX, single I.V., 48 h post-injection
Experimental: as §1
The deparaffinized tissue samples were stained with DAPI and WGA-AF647 and mounted with Prolong Gold mounting medium. Samples were imaged with a Leica SP8X confocal microscope.

4T1 cells [3] = assay: Alamar Blue cell viability assay; assay type: cell-based, murine; details: 72 h incubation
Experimental: Alamar Blue cell viability assay. Cells were seeded in a 96-well plate and incubated overnight. The following day, the medium was replaced with medium containing various agents. The cells were then incubated for 72 h. Cell viability was assessed using the Alamar Blue assay. Briefly, the medium was replaced with cell culture medium containing the reagent and allowed to incubate for 2 h. Following the incubation, a microplate reader (SpectraMax i3 multimode microplate reader, Molecular Devices) was used to determine the fluorescence intensity of the dye (550ex/590em). The fluorescence intensity from NP or free drug treated cells was compared to those from untreated control cells to determine percent viability. Each condition was triplicated.

4T1 cells [4] = assay: Cell uptake assay by flow cytometry; assay type: cell-based, murine; details: 2 h
Experimental: Cell uptake assay by flow cytometry. 4T1 cells were incubated with different agents for 2 h (10 μg/mL DOX or DOX equivalent NPs) at either 37° C. or 4° C., followed by washing with cold PBS for 3 times. Cells were then trypsinized and resuspended in cold PBS and analyzed by flow cytometry (FACSCanto II, BD Biosciences). Each condition was triplicated.

IL-12 [5] = assay: Serum/plasma IL-12 after I.V. injection (ELISA); assay type: in vivo, mice; details: for change of plasma IL-12 level: I.V., DOX 5 mg/kg, Poly IC 18 mg/kg, or NP (DOX 10 mg/kg, Poly IC 18 mg/kg)
Experimental: Six-week-old mice were administered with IONP-DOX-Poly IC-EBP-Cy5 through I.V. injection (dosage: 10 mg/kg DOX or equivalent). At 1, 2, 4, 8, 24 and 72 h post-injection, blood (5-25 μL) was collected from tail vein. The total amount of blood withdrawn from each mouse never exceeded one percent of the total body weight of the animal during the experiment. Whole blood was diluted with PBS and spun using a benchtop centrifuge for 2 min at 5000 g to separate the plasma. The diluted plasma was added to a 96-well black plate. The plate was scanned on a SpectraMax i3 plate reader (fluorescence mode) to measure Cy5 (ex, 646 nm; em, 676 nm) and DOX (ex, 500 nm; em, 600 nm) fluorescence signals. Three mice were used for each group.
The same conditions in pharmacokinetics study were used here except that blood was collected before agent administration and 2, 6.5 and 24 h after administration. IL-12 in plasma was assessed using an ELISA kit following the manufacturer's instruction and quantified with a SpectraMax i3 plate reader.

4T1-luc orthotopic tumor = assay: Tumor growth, survival and metastasis in 4T1-luc primary (orthotopic) tumor model; assay type: in vivo, BALB/c mice
Experimental: 6-Week-old female BALB/c mice were used in this study. 4T1-luc cells were injected subcutaneously into the #9 mammary glands (10^6 cells in 0.05 mL PBS per mouse). Seven days after tumor inoculation, eighteen mice were randomly divided into 3 groups and each group was administered through intravenous injection with five doses of one of the following agents: PBS, DOX, and IONP-DOX-Poly IC-EBP. For free DOX, dose was 5 mg/kg per injection. For IONP-DOX-Poly IC-EBP, doses of DOX and Poly IC were 10 mg/kg and 18 mg/kg, respectively. Each mouse received an injection at day 7, 10, 13, 16 and 19 after tumor inoculation. The tumor size and body weight were monitored after first administration. Metastasis was monitored by IVIS imaging starting at day 22 after tumor inoculation. Mice were imaged at day 22, 25, 28, 31, 34, 37, 41, 45 and 50. Mice were euthanized following the approved animal protocol.

4T1-luc flank tumor = assay: Tumor growth inhibition in 4T1-luc flank tumor model; assay type: in vivo; details: for inhibition to tumor growth as compared to PBS-treated mice: three I.V. doses days 7, 10, 13, free DOX 5 mg/kg, NP DOX 10 mg/kg, Poly IC 18 mg/kg
Experimental: 6-Week-old female BALB/c mice were used. 4T1-luc cells were transfected to stably express luciferase so that bioluminescence imaging could be used to monitor tumor growth. 4T1-luc cells were trypsinized and suspended in PBS (10^7 cells/mL) and injected subcutaneously into the right flanks of mice (0.1 mL per mouse). Seven days after tumor inoculation, twenty-eight mice were randomly divided into 7 groups and each group was administered through intravenous injection with three doses of one of the following agents: PBS, IONPs, DOX, Poly IC, IONP-DOX-EBP, IONP-DOX-Poly IC, and IONP-DOX-Poly IC-EBP. […] For all NP agents, doses of DOX and Poly IC were 10 mg/kg and 18 mg/kg, respectively. Each mouse received an injection at day 7, 10 and 13 after tumor inoculation. The tumor size was measured by a caliper and the tumor volume was calculated by equation: V=width^2×length/2. The tumor size was measured every 3 days starting at day 4 after tumor cell inoculation. The body weight was also monitored after first agent administration.

[6] = system: bone marrow-derived dendritic cells (BMDCs); assay: Confocal imaging of cellular uptake into BMDCs; assay type: cell-based, BALB/c mice; details: 10 μg/mL Poly IC equivalent, 1 h, 37 °C
Experimental: BMDCs preparation. BMDC were generated from female BALB/c mice of 6-8 weeks old. The isolation of bone marrow cells was carried out following the method described in Madaan, A., et al., Journal of Biological Methods (2014) 1 (1). Cells were resuspended in RPMI-1640 supplemented with 10% FBS, 20 ng/mL recombinant murine GM-CSF (Shenandoah Biotechnology, Inc, Warwick, PA), and antibiotics (Pen Strep). Cells were allowed to differentiate for 7 d with one addition of fresh media at day 3. At day 7, cells were aspirated and counted for assays. Medium containing 10 ng/mL GM-CSF was used in assays.
Confocal microscopic imaging of cellular uptake. Cells were seeded onto a chamber slide (Nunc™ Lab-Tek™ II Chamber Slide™ System, Thermo Fisher Scientific Rockford, IL) with a density of 50,000 per well and incubated overnight. DOX, IONP-DOX-EBP-Cy5, or IONP-DOX-Poly IC-EBP-Cy5 was added into cells at a concentration of 10 μg/mL Poly IC-equivalency and incubated for 1 h. Cells were then washed and imaged with a Leica SP8X confocal laser scanning microscope.

IL-12 [7] = assay: IL-12 production by BMDCs (ELISA); assay type: cell-based, BALB/c mice; details: 10 μg/mL Poly IC equivalent, 24 h
Experimental: IL-12 production by ELISA assay. All conditions used were same as those for viability assay. Twenty-four hours after addition of agents into cell medium, supernatants were collected and IL-12 levels in medium were assessed by an ELISA assay kit following the manufacturer's protocol. Each condition was triplicated.

[8] = system: T cells (CD8, CD25, CD69); assay: Antigen-specific T cell response by flow cytometry in 4T1 tumor-bearing mice; assay type: in vivo, BALB/c mice; details: three days after treatment
Experimental: Twelve 6-week-old female BALB/c mice were used. 4T1 cells (10^5 cells per mouse) were inoculated subcutaneously into #9 mammary glands. The tumors were allowed to grow into palpable masses. Ten days after tumor inoculation, the 12 mice were separated into 4 treatment groups. Four treatments, including IONP-DOX-EBP-Poly IC (10 mg/kg DOX and Poly IC), IONP-DOX-EBP (10 mg/kg DOX), free Poly IC (10 mg/kg Poly IC) and PBS, were administered intravenously into four groups of mice bearing tumors (200 μL per mouse), respectively. Three days after administration, mice were euthanized, and tumors and spleens were harvested.
Harvested tumors and spleens were then sectioned, squeezed through 70 μm cell strainers and washed with PBS w/1% v/v ratio of FBS to obtain single cell suspensions. Cells were spun down with a centrifuge at 1500 rpm for 4 min and resuspended in 750 μL PBS w/1% v/v FBS. Anti-CD8-PE, anti-CD25-APC, and anti-CD69-FITC (Biolegend Inc.) solutions (3 μL each) were then mixed with 241 μL of PBS w/1% v/v FBS (total antibody solution volume for each single cell suspension was 250 μL). The cell/antibody suspension was then incubated in dark at room temperature for 30 mins. After incubation, 11 mL of PBS w/1% v/v FBS was added to all cell/antibody suspensions followed by centrifuging at 1500 rpm for 4 mins. Finally, all cell pellets were resuspended in 500 μL PBS w/1% v/v FBS and analyzed by flow cytometry (FACSCanto II).

Compound	heart damage (H&E) [1]	pathological changes in organs other than heart (H&E) [1]	DOX signal in liver [2]	DOX signal in tumors [2]	IC50 (cell viability) (4T1 cells [3]; DOX concentration)	mean fluorescence intensity (MFI) of DOX, cellular uptake (4T1 cells [4]; 10 μg/mL DOX equivalent)	DOX taken up by cells at 4° C. (4T1 cells [4]; 4 °C vs 37 °C)	change of plasma IL-12 level (IL-12 [5])	median survival time (4T1-luc orthotopic tumor; five I.V. injections 3 days apart, free DOX 5 mg/kg, NP DOX 10 mg/kg, Poly IC 18 mg/kg)	metastasis delayed to day after tumor inoculation (4T1-luc orthotopic tumor; five I.V. injections, IVIS bioluminescence)	time to mouse death from severe toxicity (4T1-luc flank tumor; free DOX 10 mg/kg I.V.)	inhibition to tumor growth as compared to PBS-treated mice (4T1-luc flank tumor)	uptake and localisation of DOX in BMDCs [6]	toxicity to cells (viability) (4T1 cells [3])	production of IL-12 in cellular supernatants (IL-12 [7])	time of peak IL-12 level post injection (IL-12 [5]; I.V. injection)	CD8 cells in tumor [8]	CD25 cells in tumor [8]	CD69 cells in tumor [8]
COc1cccc2c1C(=O)c1c(O)c3c(c(O)c1C2=O)C[C@@](O)(C(=O)CO)C[C@@H]3O[C@H]1C[C@H](N)[C@H](O)[C@H](C)O1 [DOX, doxorubicin]	severe heart damage	No pathological changes	strong and evenly distributed fluorescence signal	No observable DOX signal	about 0.36 μg/mL	451	10%	did not increase the IL-12 level	32.5 days	31 days	less than 2 weeks	small	can enter BMDCs	–	–	–	–	–	–
polyinosinic:polycytidylic acid [Poly IC]	–	–	–	–	–	–	–	rapid elevation of the IL-12 level	–	–	–	small	–	non-toxic to cells	equivalent production of IL 12	1.5 h	8.63%	7.91%	3.57%

Source: US12377166B2, “Iron oxide nanoparticle for targeted chemo-immunotherapy” (University of Washington, priority 2021, dated 2025)
